Results on 1 compound are retold here after patent publication US20110081428A1, “Use of thioflavin-like compounds to increase life span and/or health span” (priority 2009, published 2011).

Holding throughout (assay type): in vivo, Caenorhabditis elegans
Assay [1] concerns AM140 (rmIs132[P(unc-54) Q35::YFP]). Description: Worm paralysis assay, polyQ model. Conditions: AM140, 25° C., 8 days; 50 μM ThT, 100 μM curcumin.
Method: (§1) Scoring for paralysis was initiated 2 and 8 days after temperature upshift for CL4176 and AM140, respectively. […] For sensitivity to EtOH or levamisole resistance, CW152 gas-1 (fc21) X and ZZ26 unc-63(x26)I worms were picked into 0.4 M EtOH or 50 μM levamisole, respectively, equilibrated for 5 min, and scored for paralysis as described above. Treated and untreated worms were compared with an unpaired t-test (implemented in Prism 4, Graphpad™ Software, Inc., San Diego, Calif., USA).
Assay [2] concerns DAF-16 fusion protein [TJ356 daf-16::daf-16-gfp]. Description: DAF-16::GFP localization. To be noted: ThT or curcumin treatment, no heat shock. The method, then: For fluorescent microscopy, TJ356 zIs356 IV [daf-16::daf-16-gfp+rol-6] or CF2189 Is001(skn-1::gfp+rol-6) were paralyzed with 1 mM levamisole mounted on 1% agarose pads and imaged using Olympus BX51 (60× objective) and HCImage software (Hamamatsu). For immunofluorescence, N2, […], CB1157 unc-54(e1157) or CL4176 dvIs27 [myo-3::Aβ(3 to 42)-let 3′UTR(pAF29); pRF4 (rol-6(su1006))] worms were treated for 24-36 h with or without 50 μM ThT at 25° C. After this period the worms were collected, rinsed, and fixed in 4% paraformaldehyde overnight. […] Paramyosin and perlecans were detected with primary monoclonal antibodies 5-23 and MH3 (developed by Henry Epstein and Robert H. Waterston and obtained from the Developmental Studies Hybridoma Bank developed under the auspices of the NICHD and maintained by The University of Iowa, Department of Biology, Iowa City, Iowa 52242) and AlexaFluor 633 goat anti-mouse (Molecular Probes) as secondary antibody. Soluble oligomers and Aβ peptide were detected with anti polyclonal All (Invitrogen) and 6E10 monoclonal (Covance) primary antibodies, respectively, with AlexaFluor 568 goat anti-rabbit and AlexaFluor 488 goat anti-mouse (Molecular Probes) as secondary antibodies. Images were processed and quantified by using Image Analyst MK II (Novato, Calif.).

The test system of assay [3] is HE250 [unc-52(e669su250)II]. Description: Worm paralysis assay, unc-52 ts mutant. Conditions: HE250, 25° C., 36 h; 50 μM ThT, 100 μM curcumin, 100 μM rifampicin.
Method: as §1
For the next assay, the system named is HSP-16.2. Description: Western blot HSP-16.2. To be noted: 50 μM ThT, 100 μM curcumin, 4 and 7 days of treatment. The method, then:
Peptide corresponding to amino acids 110-145 ([…]; SEQ ID NO:1) of HSP-16.2 was used to commercially synthesize antiserum (Invitrogen). Briefly, KLH-peptide was emulsified by mixing with an equal volume of Freund's adjuvant and injected into three subcutaneous dorsal sites for a total of 0.1 mg of peptide for immunization. The animals (rabbits) were bled, the blood allowed to clot and the serum collected by centrifugation. Monoclonal HSP-70 and Polyclonal HSF-1 primary antibodies were from stressgen (N27F3-4 and SPA-901, respectively).
Worms were transferred to siliconized eppendorf tubes, washed once in S-basal and frozen in liquid N2. Standard SDS-PAGE was performed using (4-12%) NOVEX gels and IVIES running buffer. Following transfer PVDF (BioRad) membranes were incubated with antisera (1:10000) or primary antibodies (1:1000) diluted in blocking buffer and then with secondary, goat anti-rabbit IgG antibody/horseradish peroxidase conjugate (Pierce), diluted 1:25000. Detection was undertaken with chemiluminescent reagents (SuperSignal, Pierce) and standard autoradiography.

In assay [4] the test system is CL4176 (Aβ3-42 expressed in muscle). Description: Worm paralysis assay, Aβ model. Conditions: CL4176, 25° C.; 50 μM ThT, 100 μM curcumin.
Method: as §1

With `COc1cc(/C=C/C(=O)CC(=O)/C=C/c2ccc(O)c(OC)c2)ccc1O` [curcumin, reference compound], the “proportion of paralyzed worms” value in assay [1] and in assay [4] was “significantly decrease the proportion of paralyzed worms” in each case. Further, the “DAF-16::GFP localization” value in assay [2] is listed as “does not produce DAF-16::GFP relocalization”. For the same compound, in assay [3], the “paralysis phenotype of unc-52 mutant” value is listed as “Protection”. For the same compound, the HSP-16.2 protein levels entry in the assay with HSP-16.2 is reported as “increase the HSP-16.2 levels”.
